“Also recorded” adds a separate entry of the source.
Key:
survivin protein = assay: Western blot analysis of survivin; format: cell-based
caspase 3 = assay: Caspase 3 activity in cultured tumor cells; format: cell-based
[1] = test system: Ephrin B2 (EphB2) receptor in PC-12 PS-1/L286V cells; assay: EphB2 receptor expression (immunofluorescence and RT-PCR); format: cell-based, Rat; settings: PS-1/L286V mutant PC-12 cells; 10 μM
Protocol: (§1) Immunofluorescence. Cells were plated at a density of 10,000 cells/cm^2 on sterile coated 22×22 mm coverslips in a 6-well culture plate. Differentiation was initiated, as previously described, for 10 days. The differentiated cells were then fixed in methanol for 15 minutes at −20° C. This is followed by a 15 minutes incubation with PBS+0.1% Triton X-100. The coverslips were incubated with antibodies raised against Ephrin B2 Receptor (Santa Cruz Biotechnology) and Gap-43 (Novus Biologicals) for 40 minutes at 37° C. After a series of washes with PBS-Triton X-100, secondary antibody conjugated to FITC (Jackson ImmunoResearch, Westgrove, Pa.) was applied. All slides images were acquired using a Nikon PCM2000 Laser Scanning Confocal Microscope mounted on a Nikon Eclipse E600 upright microscope (Nikon, Melville, N.Y.).
RT-PCR. To analyze the mRNA levels for Ephrin B2 (EphB2) receptor, total RNA was isolated using Trizol (Invitrogen-GIBCO-BRL, Baltimore, Md.) from differentiated cells. 2 μg RNA was reverse transcribed in a total volume of 20 μl with random hexamer (50 ng), and using the Superscript II reverse transcription system (Invitrogen-GIBCO-BRL), according to manufacturer's guidelines. PCR was carried out in a 50 μl volume containing 5 μl cDNA, 100 pmol primers, 100 μM dNTPs, 1×Taq buffer and 1.5 mM MgCl2. […]

cultured tumor cells [2] = assay: Cell death of cultured tumor cells; format: cell-based; settings: 5.0 μM
[3] = target: β-catenin/CBP interaction (Homo sapiens, UniProt Q92793); settings: Emami et al., Cancer Cell, in press; cited from earlier work
SW480 cells [4] = assay: Soft agar colony formation assay; format: cell-based
Protocol: The soft agar colony formation assay was conducted with SW480 cells by some modification of the procedure previously described (Moody et al., “A vasoactive intestinal peptide antagonist inhibits non-small cell lung cancer growth,” Proc. Natl. Acad. Sci. USA. 90:4345-49 (1993)).
Each well (35 mm) of a 6-well plate (Nalge Nunc International, Roskide, Denmark) was coated with 1 ml of 0.8% bottom agar in DMEM medium containing 10% fetal bovine serum. After it was solidified, 1 ml of DMEM medium containing 0.4% top agar, 10% fetal bovine serum, compound doubly concentrated, and 5,000 single viable cells was added to each well. The cultures were incubated at 37° C. in humidified 5% CO2 incubator. Colonies in soft agar were monitored daily and photographed after incubation for 8 days. Colonies>60 μm in diameter were counted.

[5] = test system: TCF/β-catenin reporter gene transcription in PC-12 PS-1/L286V cells; assay: TOPFLASH luciferase assay in differentiated PC-12 cells; format: cell-based, Rat; settings: PS-1/L286V mutant PC-12 cells; 10 μM plus NGF
Protocol: Differentiated PC-12/L286V cells were treated with increasing concentrations of this compound for 4 hours. Transfection was then initiated after this treatment period.
Transfection. PC-12 cells were cultured and differentiated on 60-mm dishes. At the end of the 10-day differentiation period, cells were transfected with 2 μg reporter constructs, TOPFLASH and FOPFLASH, per 60-mm dish. Transfections were performed using Superfect (Qiagen) according to manufacturer's instructions.
Luciferase Assays. Cells were lysed, 6 hours after transfections, in 100 μl of Cell Culture Lysis Reagent (Promega, Madison, Wis.), and scraped into microcentrifuge tubes. Tubes were then centrifuged briefly (about 10 seconds) at 12000 rpm to pellet cell debris. Luciferase activity was measured on 20 μl of cell lysate and 100 μl substrate from the Luciferase Assay System (Promega). Luciferase activity was measure using Packard LumiCount. (Hewlett Packard). Quantitation of luciferase was performed in triplicates, and repeated in at least three independent experiments.

caspase 2 = assay: Caspase 2 activity in cultured tumor cells; format: cell-based; settings: co-treatment of stausporine (0.5 μM) and Compound D
HCT116 cells = assay: Flow cytometric analysis (FACS) of cell cycle; format: cell-based; settings: 25 μM, 24 hours
Protocol: (§2) For FACS analysis, approx. 5×10^6 cells from Compound D-treated or vehicle-treated were fixed with 70% chilled ethanol and stored at −20° C. for at least 30 minutes. The cells were washed once with 1×PBS and incubated with propidium iodine (PI) solution (85 μg/ml propidium iodine, 0.1% Nonidet P-40, 10 mg/ml RNAse) for 30 minutes at room temperature. 10,000 stained cells for each sample were acquired using Beckman Coulter EPICS XL-MCL Flow Cytometry and the percentage of cells in different phase of the cell cycle was determined by Expo32 ADC software (Coulter Corporation, Miami, Fla., 33196).
(§3) It has been shown that inhibition of the expression of the cyclin D1 gene causes arrest at the G1/S-phase of the cell cycle (Shintani et al., “Infrequent alternations of RB pathway (Rb-p16INK4A-cyclin D1) in adenoid cystic carcinoma of salivary glands,” Anticancer Res. 20:2169-75 (2000)). […] The cells were subsequently stained with propidium iodide (PI) and analyzed for DNA content by FACS cytofluorometry.

SW480 cells [6] = assay: Flow cytometric analysis (FACS) of cell cycle; format: cell-based; settings: 25 μM, 24 hours
Protocol: as §2, §3

[7] = test system: GAP-43 in PC-12 PS-1/L286V cells; assay: GAP-43 immunofluorescence; format: cell-based, Rat; settings: PS-1/L286V mutant PC-12 cells; 10 μM
Protocol: as §1

cultured tumor cells [8] = assay: FACS analysis, cells in G0; format: cell-based; settings: 5 μM
survivin in SW480 cells = assay: Survivin immunofluorescence microscopy; format: cell-based
[9] = test system: survivin promoter in wild type, CBP+/−, p300+/− 3T3 cells; assay: Survivin promoter luciferase reporter in 3T3 cells; format: cell-based
From the text: A plasmid containing luciferase under the control of survivin promoter was constructed and transfected into wild type, CBP+/−, or p300+/−3T3 cells.

β-catenin/CBP interaction, sequence (Q92793 whole entry): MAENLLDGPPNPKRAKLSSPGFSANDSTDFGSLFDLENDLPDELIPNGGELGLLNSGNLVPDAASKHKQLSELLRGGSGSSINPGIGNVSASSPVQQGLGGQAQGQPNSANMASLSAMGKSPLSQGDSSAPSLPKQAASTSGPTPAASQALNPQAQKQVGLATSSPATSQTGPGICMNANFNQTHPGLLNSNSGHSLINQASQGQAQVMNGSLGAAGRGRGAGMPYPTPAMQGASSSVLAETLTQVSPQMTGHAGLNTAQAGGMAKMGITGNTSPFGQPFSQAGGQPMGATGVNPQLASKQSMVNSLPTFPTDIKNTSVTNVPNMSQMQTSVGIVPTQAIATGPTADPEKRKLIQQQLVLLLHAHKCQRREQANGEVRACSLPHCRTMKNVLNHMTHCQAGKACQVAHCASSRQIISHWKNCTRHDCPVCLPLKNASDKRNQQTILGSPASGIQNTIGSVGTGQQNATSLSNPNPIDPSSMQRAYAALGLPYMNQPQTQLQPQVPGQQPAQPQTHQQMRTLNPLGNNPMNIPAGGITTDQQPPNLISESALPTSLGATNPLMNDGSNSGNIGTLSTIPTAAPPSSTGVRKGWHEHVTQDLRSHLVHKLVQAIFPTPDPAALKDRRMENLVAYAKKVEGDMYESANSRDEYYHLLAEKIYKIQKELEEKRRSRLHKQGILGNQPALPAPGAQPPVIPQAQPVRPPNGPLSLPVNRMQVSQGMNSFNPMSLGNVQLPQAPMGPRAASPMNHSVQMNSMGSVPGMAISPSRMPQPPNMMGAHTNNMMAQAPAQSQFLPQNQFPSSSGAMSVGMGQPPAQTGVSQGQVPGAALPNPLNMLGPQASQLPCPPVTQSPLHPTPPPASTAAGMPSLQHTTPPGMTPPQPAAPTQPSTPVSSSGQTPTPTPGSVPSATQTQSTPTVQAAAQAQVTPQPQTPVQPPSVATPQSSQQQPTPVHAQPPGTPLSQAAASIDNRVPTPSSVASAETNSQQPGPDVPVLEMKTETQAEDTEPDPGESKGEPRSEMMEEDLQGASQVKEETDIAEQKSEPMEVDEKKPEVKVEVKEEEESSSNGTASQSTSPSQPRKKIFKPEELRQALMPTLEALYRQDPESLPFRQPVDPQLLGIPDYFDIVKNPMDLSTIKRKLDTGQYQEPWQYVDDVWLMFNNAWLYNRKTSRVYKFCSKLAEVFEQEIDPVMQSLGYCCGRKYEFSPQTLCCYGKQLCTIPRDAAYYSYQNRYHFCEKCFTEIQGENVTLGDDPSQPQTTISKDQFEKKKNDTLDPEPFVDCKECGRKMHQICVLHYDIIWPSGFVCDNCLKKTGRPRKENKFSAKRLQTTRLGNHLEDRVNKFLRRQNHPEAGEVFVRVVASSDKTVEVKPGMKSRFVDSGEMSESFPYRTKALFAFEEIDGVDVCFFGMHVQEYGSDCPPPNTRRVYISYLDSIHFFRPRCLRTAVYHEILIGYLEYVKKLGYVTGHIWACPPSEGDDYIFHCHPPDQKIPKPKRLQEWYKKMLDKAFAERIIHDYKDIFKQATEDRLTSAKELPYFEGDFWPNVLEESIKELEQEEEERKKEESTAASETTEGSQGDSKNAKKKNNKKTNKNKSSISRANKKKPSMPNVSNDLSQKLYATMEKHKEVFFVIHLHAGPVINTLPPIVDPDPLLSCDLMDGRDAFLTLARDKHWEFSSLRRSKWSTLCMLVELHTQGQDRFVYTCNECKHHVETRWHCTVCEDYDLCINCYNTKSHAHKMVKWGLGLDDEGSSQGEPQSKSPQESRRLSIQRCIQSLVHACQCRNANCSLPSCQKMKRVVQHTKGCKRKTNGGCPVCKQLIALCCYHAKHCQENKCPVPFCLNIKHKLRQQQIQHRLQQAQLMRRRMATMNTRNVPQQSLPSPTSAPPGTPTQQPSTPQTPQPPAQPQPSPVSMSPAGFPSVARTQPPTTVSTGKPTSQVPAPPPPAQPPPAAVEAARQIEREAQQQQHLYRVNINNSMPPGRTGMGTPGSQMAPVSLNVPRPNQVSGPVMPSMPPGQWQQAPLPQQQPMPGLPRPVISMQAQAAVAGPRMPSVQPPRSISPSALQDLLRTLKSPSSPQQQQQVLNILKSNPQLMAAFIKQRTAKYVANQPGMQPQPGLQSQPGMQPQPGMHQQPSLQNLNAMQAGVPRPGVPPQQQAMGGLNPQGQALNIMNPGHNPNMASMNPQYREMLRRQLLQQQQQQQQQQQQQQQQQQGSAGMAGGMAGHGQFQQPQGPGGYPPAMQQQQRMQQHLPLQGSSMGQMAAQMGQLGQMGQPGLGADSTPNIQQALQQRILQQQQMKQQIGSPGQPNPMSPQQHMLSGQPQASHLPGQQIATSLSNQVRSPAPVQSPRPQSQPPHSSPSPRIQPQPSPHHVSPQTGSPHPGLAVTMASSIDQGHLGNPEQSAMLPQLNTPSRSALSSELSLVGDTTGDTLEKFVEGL

| Compound | amount of survivin protein (Western blot) (survivin protein; 5 μM) | caspase 3 activity, co-treatment (caspase 3; co-treatment of stausporine (0.5 μM) and Compound D) | caspase 3 activity (caspase 3; cultured tumor cells, 2.5 μM or 5.0 μM) | EphB2 message (RT-PCR) [1] | EphB2 receptor expression (immunofluorescence) [1] | cell death (cultured tumor cells [2]) | β-catenin/CBP interaction [3] | number of colonies formed in soft agar (SW480 cells [4]; 0.25-5 μM) | IC50 (SW480 cells [4]; Homo sapiens, 192 h, 8 days, colonies >60 μm) [µM] | TCF/β-catenin reporter gene transcription [5] | caspase 2 activity, co-treatment (caspase 2) | amount of survivin protein (Western blot) (survivin protein; 10 μM) | amount of survivin protein (Western blot) (survivin protein; 25 μM) | cell cycle distribution (PI, FACS) (HCT116 cells) | cell cycle distribution (PI, FACS) (SW480 cells [6]) | GAP-43 staining [7] | number of cells in G0 (FACS) (cultured tumor cells [8]) | survivin protein (immunofluorescence microscopy) (survivin in SW480 cells) | survivin gene expression (luciferase under survivin promoter) [9] | Wnt1 stimulation of survivin gene expression ([9]; with Wnt1) |
| --- | --- | --- | --- | --- | --- | --- | --- | --- | --- | --- | --- | --- | --- | --- | --- | --- | --- | --- | --- | --- |
| O=c1[nH]cc(F)c(=O)[nH]1 [Compound 5-FU, 5-fluorouracil] | reduced the amount of the survivin protein |  |  |  |  |  |  |  |  |  |  |  |  |  |  |  |  |  |  |  |
| O=C1[C@H](Cc2ccc(O)cc2)N2C(=O)CCN(C(=O)NCc3ccccc3)[C@H]2CN1Cc1cccc2ccccc12 [Compound D] |  | synergic stimuation of the caspase 3 activity | activates the caspase 3 activity | increased EphB2 message; also recorded: upregulates EphB2 message | increased EphB2 receptor expression | promotes cell death | selectively blocks the β-catenin/CBP interaction | reduces colony growth in soft agar in a dose dependent manner | 0.87 ± 0.11 | decreased TCF/β-catenin reporter gene transcription | not a synergic stimuation of the caspase 2 activity | reduced the amount of the survivin protein | reduced the amount of the survivin protein | increased accumulation at G1/S-phase of the cell cycle; also recorded: arrests cells in G1 | increased accumulation at G1/S-phase of the cell cycle; also recorded: arrests cells in G1 | significantly elevated | increases the number of cells in G0 | little or no survivin protein was detected | reduces expression of the survivin gene; also recorded: knout-down | decreases the stimulation of the survivin gene expression by Wnt1 |

From patent US7671054B1, “Reverse-turn mimetics and method relating thereto” (Choongwae Pharma Corporation, priority 2001, dated 2010)
